Patent US9540377B2, “2,6,7,8 substituted purines as HDM2 inhibitors” (Merck Sharp & Dohme Corp., priority 2013, dated 2017)

Target: HDM2 (truncated, residues 17 to 125, containing p53 binding surface) (Homo sapiens (Human), UniProt Q00987)
Assay: HDM2 FRET assay (inhibition of binding of FITC labeled p53-site peptide to HDM2)
Conditions: Table 16
Text: IC50 DETERMINATIONS: Dose-response curves were plotted from the inhibition data, from 10 point serial dilutions of inhibitory compounds. Concentration of compound was plotted against em520/Cem495 ratio signal. To generate IC50 values, the dose-response curves were fitted to a standard sigmoidal curve and IC50 values were derived by nonlinear regression analysis.

Chain of HDM2 (truncated, residues 17 to 125, containing p53 binding surface) (Q00987 17-125): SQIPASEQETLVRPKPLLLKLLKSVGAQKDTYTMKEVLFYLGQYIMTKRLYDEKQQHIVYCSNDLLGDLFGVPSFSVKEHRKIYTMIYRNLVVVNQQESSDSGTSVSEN

Question: `COCCOc1cc(Cl)cc(-c2nc(-c3noc(=O)[nH]3)nc3nc(N4CCO[C@@H]5CCC[C@H]54)n(C[C@H]4CC[C@H](C)CC4)c23)c1` (racemic) [Example 16.160, 3-{6-[3-chloro-5-(2-methoxyethoxyl)phenyl]-8-[(trans)-hexahydrocyclopenta[b][1,4]oxazin-4(4aH)-yl]-7-[(trans-4-methylcyclohexyl)methyl]-7H-purin-2-yl}-1,2,4-oxadiazol-5(4H)-one] was tested. Which IC50 did it give?
Answer: The IC50 was 21 nM.

Question: Which IC50 does the source give for `C[C@H]1CC[C@H](Cn2c(N3CCCC4COCCC43)nc3nc(-c4n[nH]c(=O)o4)nc(-c4cccc(Cl)c4)c32)CC1` (single isomer, unassigned) [Example 16.125, 5-{6-(3-chlorophenyl)-8-(hexahydro-2H-pyrano[4,3-b]pyridin-1(5H)-yl)-7-[(trans-4-methylcyclohexyl)methyl]-7H-purin-2-yl}-1,3,4-oxadiazol-2(3H)-one] here?
Answer: The IC50 was 56.7 nM.

Question: With `C[C@H]1CC[C@H](Cn2c(N3CCO[C@H]4CCCC[C@H]43)nc3nc(-c4noc(=O)[nH]4)nc(-c4cncc(Cl)c4)c32)CC1` (racemic) [Example 16.131, 3-{6-(5-chloropyridin-3-yl)-7-[(trans-4-methylcyclohexyl)methyl]-8-[(cis)-octahydro-4H-1,4-benzoxazin-4-yl]-7H-purin-2-yl}-1,2,4-oxadiazol-5(4H)-one] as the compound, how does the IC50 read?
Answer: Its IC50 is 35 nM.

Question: With `CO[C@@H]1CCN(c2nc3nc(-c4n[nH]c(=O)o4)nc(-c4cncc(Cl)c4)c3n2C[C@H]2CC[C@H](C)CC2)[C@@H](C)C1` (racemic) [Example 16.155, 5-{6-(5-chloropyridin-3-yl)-8-[(trans)-4-methoxy-2-methylpiperidin-1-yl]-7-[(trans-4-methylcyclohexyl)methyl]-7H-purin-2-yl}-1,3,4-oxadiazol-2(3H)-one] as the compound, how does the IC50 read?
Answer: The IC50 was 49.1 nM.

Same assay, conditions: Table 18

Question: For `CC(C)c1ccnc(-c2nc3nc(-c4noc(=O)[nH]4)nc(N[C@H](C)C4CCC4)c3n2C[C@@H]2CC[C@@H](C)C(F)(F)C2)c1` (stereo in doubt) [Example 18.11, 3-(6-(((R)-1-cyclobutylethyl)amino)-7-((trans-3,3-difluoro-4-methylcyclohexyl)methyl)-8-(4-isopropylpyridin-2-yl)-7H-purin-2-yl)-1,2,4-oxadiazol-5(4H)-one], which IC50 is on record?
Answer: Its IC50 is 2.79 nM.

Same assay, conditions: Table 23

Question: For `CC(F)(c1c(F)cccc1F)c1nc2nc(-c3n[nH]c(=O)o3)nc(-c3cncc(Cl)c3)c2n1C[C@H]1CC[C@H](C)CC1` (single isomer, unassigned) [Example 23.81, 5-{6-(5-chloropyridin-3-yl)-8-[1-(2,6-difluorophenyl)-1-fluoroethyl]-7-[(trans-4-methylcyclohexyl)methyl]-7H-purin-2-yl}-1,3,4-oxadiazol-2(3H)-one], which IC50 is on record?
Answer: The IC50 was 0.289 nM.

Question: How did the IC50 turn out when `CC(F)(c1ccccc1C#N)c1nc2nc(-c3noc(=O)[nH]3)nc(-c3cncc(Cl)c3)c2n1C[C@H]1CC[C@H](C)CC1` (mixture of isomers) [Example 23.110, 2-{1-[6-(5-chloropyridin-3-yl)-7-[(trans-4-methylcyclohexyl)methyl]-2-(5-oxo-4,5-dihydro-1,2,4-oxadiazol-3-yl)-7H-purin-8-yl]-1-fluoroethyl}benzonitrile] was run?
Answer: Its IC50 is 0.515 nM.

Question: Which IC50 does the source give for `COC(C)(c1ccccn1)c1nc2nc(-c3n[nH]c(=O)o3)nc(-c3cccc(Cl)c3)c2n1C[C@H]1CC[C@H](C)CC1` (single isomer, unassigned) [Example 23.54, 5-{6-(3-chlorophenyl)-8-(1-methoxy-1-pyridin-2-ylethyl)-7-[(trans-4-methylcyclohexyl)methyl]-7H-purin-2-yl}-1,3,4-oxadiazol-2(3H)-one] here?
Answer: Its IC50 is 13.6 nM.

Question: For `CC(C)(C)C(C)(F)c1nc2nc(-c3noc(=O)[nH]3)nc(-c3cncc(Cl)c3)c2n1C[C@H]1CC[C@H](C)CC1` (mixture of isomers) [Example 23.91, 3-{6-(5-chloropyridin-3-yl)-8-(1-fluoro-1,2,2-trimethylpropyl)-7-[(trans-4-methylcyclohexyl)methyl]-7H-purin-2-yl}-1,2,4-oxadiazol-5(4H)-one], which IC50 is on record?
Answer: The IC50 was 13 nM.

Question: With `COC(C)(c1c(F)cccc1F)c1nc2nc(-c3n[nH]c(=O)o3)nc(-c3cncc(Cl)c3)c2n1C[C@H]1CC[C@H](C)CC1` (single isomer, unassigned) [Example 23.88, 5-{6-(5-chloropyridin-3-yl)-8-[1-(2,6-difluorophenyl)-1-methoxyethyl]-7-[(trans-4-methylcyclohexyl)methyl]-7H-purin-2-yl}-1,3,4-oxadiazol-2(3H)-one] as the compound, how does the IC50 read?
Answer: The IC50 was 0.598 nM.

Question: Which IC50 does the source give for `COc1ccccc1C(C)(OC)c1nc2nc(-c3noc(=O)[nH]3)nc(-c3cncc(Cl)c3)c2n1C[C@H]1CC[C@H](C)CC1` (mixture of isomers) [Example 23.79, 3-{6-(5-chloropyridin-3-yl)-8-[1-methoxy-1-(2-methoxyphenyl)ethyl]-7-[(trans-4-methylcyclohexyl)methyl]-7H-purin-2-yl}-1,2,4-oxadiazol-5(4H)-one] here?
Answer: Its IC50 is 3.8 nM.

Question: For `COC(C)(c1cccc(Cl)c1F)c1nc2nc(-c3n[nH]c(=O)o3)nc(-c3cncc(Cl)c3)c2n1C[C@H]1CC[C@H](C)CC1` (single isomer, unassigned) [Example 23.73, 5-{8-[1-(3-chloro-2-fluorophenyl)-1-methoxyethyl]-6-(5-chloropyridin-3-yl)-7-[(trans-4-methylcyclohexyl)methyl]-7H-purin-2-yl}-1,3,4-oxadiazol-2(3H)-one], which IC50 is on record?
Answer: Its IC50 is 0.623 nM.

Question: How did the IC50 turn out when `CC(F)(c1ccccn1)c1nc2nc(-c3n[nH]c(=O)o3)nc(-c3cccc(Cl)c3)c2n1C[C@H]1CC[C@H](C)CC1` (single isomer, unassigned) [Example 23.36, 5-{6-(3-chlorophenyl)-8-[1-fluoro-1-(pyridin-2-yl)ethyl]-7-[(trans-4-methylcyclohexyl)methyl]-7H-purin-2-yl}-1,3,4-oxadiazol-2(3H)-one] was run?
Answer: Its IC50 is 9.68 nM.

Question: Which IC50 does the source give for `COc1ccccc1C(C)(F)c1nc2nc(-c3noc(=O)[nH]3)nc(-c3cncc(Cl)c3)c2n1C[C@H]1CC[C@H](C)CC1` (single isomer, unassigned) [Example 23.27, 3-{6-(5-chloropyridin-3-yl)-8-[1-fluoro-1-(2-methoxyphenyl)ethyl]-7-[(trans-4-methylcyclohexyl)methyl]-7H-purin-2-yl}-1,2,4-oxadiazol-5(4H)-one] here?
Answer: The IC50 was 1.62 nM.

Question: With `CC(F)(c1ccccc1F)c1nc2nc(-c3noc(=O)[nH]3)nc(-c3cncc(Cl)c3)c2n1C[C@H]1CC[C@H](C)CC1` (single isomer, unassigned) [Example 23.35, 3-{6-(5-chloropyridin-3-yl)-8-[1-fluoro-1-(2-fluorophenyl)ethyl]-7-[(trans-4-methylcyclohexyl)methyl] 7H-purin-2-yl}-1,2,4-oxadiazol-5(4H)-one] as the compound, how does the IC50 read?
Answer: The IC50 was 0.424 nM.

Target: HDM2 (Homo sapiens (Human), UniProt Q00987)
Sequence (Q00987 17-125): as above
Assay: FRET assay (FRET IC50 of Tables 1-11)
Format: binding
Conditions: not given

Question: With “6-{[(1R)-1-cyclopropylethyl]ammo}-8-phenyl-7-[4-(trifluoromethyl)benzyl]-7H-purine-2-carboxylic acid [Example 1.96]” as the compound, how does the IC50 read?
Answer: Its IC50 is 371 nM.

Question: How did the IC50 turn out when `COc1ccc(C)cc1-c1nc2nc(C(=O)O)nc(N[C@H](C)C3CC3(F)F)c2n1Cc1ccc(C(F)(F)F)cc1` (stereo partly drawn) [Example 7.19, 6-{[(1R)-1-(2,2-difluorocyclopropyl)ethyl]amino}-8-(2-methoxy-5-methylphenyl)-7-[4-(trifluoromethyl)benzyl]-7H-purine-2-carboxylic acid] was run?
Answer: Its IC50 is 72.2 nM.

Same assay, conditions: Table 9

Question: `C[C@@H](Nc1nc(C(=O)O)nc2nc(N3CCCCC3Cc3ccccc3)n(Cc3ccc(C(F)(F)F)cc3)c12)C1CCC1` (stereo partly drawn) [Example 9.3, 8-(2-benzylpiperidin-1-yl)-6-{[(1R)-1-cyclobutylethyl]amino}-7-[4-(trifluoromethyl)benzyl]-7H-purine-2-carboxylic acid] was tested. Which IC50 did it give?
Answer: Its IC50 is 20.7 nM.
